One assay deals with human 5-HT2A receptor (Homo sapiens (Human), UniProt P28223). The assay is described as follows: biochemical. Format: binding. As to conditions: read-out: 5-HT2A receptor binding inhibition constant Ki.
Assay [1] has as its target human serotonin transporter (SERT) (Homo sapiens (Human), UniProt P31645). The assay is described as follows: Human serotonin transporter (SERT) binding test. As to conditions: [3H]-citalopram, h-SERT/CHO cell membrane; read-out: h-SERT binding inhibition constant Ki.
Where [2] appears, read: [3H]-ketanserin, human 5-HT2A receptor-expressed CHO cell membrane.

By Ki is commonly meant a measure of affinity in units of concentration, obtained from inhibition or displacement.

Structures are written as SMILES. Where two headings read alike, the source gives them in different places.

With `CNCc1cc(OCc2ccccc2)n(Cc2ccccc2)n1` [Example 1, 1-[l-benzyl-5-(benzyloxy)-1H-pyrazol-3-yl]-N-methylmethanamine], the inhibition constant (Ki) at human 5-HT2A receptor (setting [2]) was 5.5 nM.
On to `CNCc1cc(OCc2ccccc2)n(CC2CCCCC2)n1` [Example 5, 1-[5-(benzyloxy)-1-(cyclohexylmethyl)-1H-pyrazol-3-yl]-N-methylmethanamine], for which, at human 5-HT2A receptor, the Ki stood at 5.9 nM.
As for `CNCc1cc(OCc2ccccc2F)n(CC2CCCCC2)n1` [Example 20, 1-{1-(cyclohexylmethyl)-5-[(2-fluorobenzyl)oxy]-1H-pyrazol-3-yl}-N-methylmethanamine], the values for the Ki (at human 5-HT2A receptor (setting [2]); in assay [1]) were 0.65 nM and 1.6 nM, respectively.
For `CNCc1cc(OCc2ccc(F)cc2Cl)n(CC2CCCCC2)n1` [Example 30, 1-{5-[(2-chloro-4-fluorobenzyl)oxy]-1-(cyclohexylmethyl)-1H-pyrazol-3-yl}-N-methylmethanamine] the same measures were 0.52 nM and 1.5 nM.
As for `CNCc1cc(OCc2ccc(F)cc2C)n(CC2CCCCC2)n1` [Example 31, 1-{1-(cyclohexylmethyl)-5-[(4-fluoro-2-methylbenzyl)oxy]-1H-pyrazol-3-yl}-N-methylmethanamine], the Ki on human 5-HT2A receptor is 1.4 nM.
For `CNCc1cc(OCc2cc(F)ccc2F)n(CC2CCCCC2)n1` [Example 33, 1-{1-(cyclohexylmethyl)-5-[(2,5-difluorobenzyl)oxy]-1H-pyrazol-3-yl}-N-methylmethanamine], the inhibition constant (Ki) at human 5-HT2A receptor (setting [2]) came to 0.5 nM.
Regarding `CNCc1cc(OCc2cc(F)ccc2Cl)n(CC2CCCCC2)n1` [Example 37, 1-{5-[(2-chloro-5-fluorobenzyl)oxy]-1-(cyclohexylmethyl)-1H-pyrazol-3-yl}-N-methylmethanamine], the Ki on human 5-HT2A receptor came to 2.1 nM; in assay [1], 0.89 nM.
Turning to `CNCc1cc(OCc2cc(Cl)ccc2Cl)n(CC2CCCCC2)n1` [Example 38, 1-{1-(cyclohexylmethyl)-5-[(2,5-dichlorobenzyl)oxy]-1H-pyrazol-3-yl}-N-methylmethanamine], the inhibitory constant (Ki) worked out at 3.2 nM on human 5-HT2A receptor (setting [2]) and 2.4 nM in assay [1].
For `CNCc1cc(OCc2ccc(F)cc2C)n(CC2CCCCO2)n1` (stereo not shown) [Example 108, 1-{5-[(4-fluoro-2-methylbenzyl)oxy]-1-(tetrahydro-2H-pyran-2-ylmethyl)-1H-pyrazolo-3-yl}-N-methylmethanamine] the same measures were 4.8 nM and 1.9 nM.
In the case of `CNCc1cc(OCc2ccccc2)n(CC2CC3CCC2C3)n1` (stereo not shown) [Example 115, 1-[5-(benzyloxy)-1-(bicyclo[2.2.1]hept-2-ylmethyl)-1H-pyrazol-3-yl]-N-methylmethanamine], the inhibition constant Ki on human 5-HT2A receptor (setting [2]) is 1 nM.
With `CNCc1cc(OCc2cc(F)ccc2F)n(CC2CC3CCC2C3)n1` (stereo not shown) [Example 117, 1-{1-(bicyclo[2.2.1]hept-2-ylmethyl)-5-[(2,5-difluorobenzyl)oxy]-1H-pyrazol-3-yl}-N-methylmethanamine], the Ki turned out to be 0.76 nM at human 5-HT2A receptor and 0.5 nM in assay [1].
For the compound `CNCc1cc(OCc2cc(Cl)ccc2F)n(CC2CC3CCC2C3)n1` (stereo not shown) [Example 118, 1-{1-(bicyclo[2.2.1]hept-2-ylmethyl)-5-[(5-chloro-2-fluorobenzyl)oxy]-1H-pyrazol-3-yl}-N-methylmethanamine], the Ki on human 5-HT2A receptor (setting [2]) was 0.73 nM; in assay [1], 2 nM.
The corresponding values for `CNCc1cc(OCc2cc(F)ccc2F)n(CC2CCC(F)(F)CC2)n1` [Example 124, 1-{5-[(2,5-difluorobenzyl)oxy]-1-[(4,4-difluorocyclohexyl)methyl]-1H-pyrazol-3-yl}-N-methylmethanamine] are 1.7 nM and 0.71 nM.
Turning to `CNCc1cc(OCc2cc(F)ccc2F)n(CC2(F)CCCCC2)n1` [Example 127, 1-{5-[(2,5-difluorobenzyl)oxy]-1-[(1-fluorocyclohexyl)methyl]-1H-pyrazol-3-yl}-N-methylmethanamine], the Ki in assay [1] came to 1.3 nM.
In the case of `CNCc1cc(OCc2ccc(F)cc2)n(CC2CCCC2)n1` [Example 137, 1-{1-(cyclopentylmethyl)-5-[(4-fluorobenzyl)oxy]-1H-pyrazol-3-yl}-N-methylmethanamine], the Ki at human 5-HT2A receptor (setting [2]) is 1.3 nM.
As to `CNCc1cc(OCc2ccccc2Cl)n(CC2CCCC2)n1` [Example 138, 1-{5-[(2-chlorobenzyl)oxy]-1-(cyclopentylmethyl)-1H-pyrazol-3-yl}-N-methylmethanamine], the inhibition constant Ki on human 5-HT2A receptor (setting [2]) worked out at 11 nM; in assay [1] it was 1.8 nM.
Consider `CNCc1cc(OCc2ccc(F)cc2F)n(CC2CCCC2)n1` [Example 144, 1-{1-(cyclopentylmethyl)-5-[(2,4-difluorobenzyl)oxy]-1H-pyrazol-3-yl}-N-methylmethanamine], for which the inhibition constant Ki at human 5-HT2A receptor was 0.2 nM.
In the case of `CNCc1cc(OCc2cc(Cl)ccc2F)n(CC2CCCC2)n1` [Example 148, 1-{5-[(5-chloro-2-fluorobenzyl)oxy]-1-(cyclopentylmethyl)-1H-pyrazol-3-yl}-N-methylmethanamine], the inhibition constant Ki at human 5-HT2A receptor is 1.8 nM.
On to `CNCc1cc(OCc2ccccc2C#N)n(CC2CCCC2)n1` [Example 162, 2-[({1-(cyclopentylmethyl)-3-[(methylamino)methyl]-1H-pyrazol-5-yl}oxy)methyl]benzonitrile], for which the figures for the Ki (on human 5-HT2A receptor; in assay [1]) were 2.7 nM and 7.8 nM, respectively.
As for `CNCc1cc(OCc2ccccc2F)n(Cc2ccc(F)cc2)n1` [Example 218, 1-{1-(4-fluorobenzyl)-5-[(2-fluorobenzyl)oxy]-1H-pyrazol-3-yl}-N-methylmethanamine], the inhibition constant (Ki) at human 5-HT2A receptor was determined as 1.2 nM.
For the compound `CNCc1cc(OCc2cc(F)ccc2F)n(Cc2ccc(F)cc2)n1` [Example 219, 1-{5-[(2,5-difluorobenzyl)oxy]-1-(4-fluorobenzyl)-1H-pyrazol-3-yl}-N-methylmethanamine], the inhibitory constant (Ki) on human 5-HT2A receptor (setting [2]) turned out to be 1.3 nM.
As to `CNCc1cc(OCc2cc(F)ccc2F)n(Cc2ccc(Cl)cc2)n1` [Example 224, 1-{1-(4-chlorobenzyl)-5-[(2,5-difluorobenzyl)oxy]-1H-pyrazol-3-yl}-N-methylmethanamine], the Ki on human 5-HT2A receptor (setting [2]) stood at 1.2 nM; in assay [1], 1.5 nM.
Regarding `CNCc1cc(OCc2cc(F)ccc2F)n(Cc2ccc(C)cc2)n1` [Example 230, 1-{5-[(2,5-difluorobenzyl)oxy]-1-(4-methylbenzyl)-1H-pyrazol-3-yl}-N-methylmethanamine], the inhibition constant (Ki) at human 5-HT2A receptor (setting [2]) worked out at 2.7 nM.
As to `CNCc1cc(OCc2cc(Cl)ccc2F)n(CC(C)C)n1` [Example 256, 1-{5-[(5-chloro-2-fluorobenzyl)oxy]-1-(2-methylpropyl)-1H-pyrazol-3-yl}-N-methylmethanamine], the inhibition constant (Ki) on human 5-HT2A receptor (setting [2]) worked out at 4.5 nM.
For `CNCc1cc(OCc2cc(Cl)ccc2F)n(CC(C)(C)C)n1` [Example 259, 1-{5-[(5-chloro-2-fluorobenzyl)oxy]-1-(2,2-dimethylpropyl)-1H-pyrazol-3-yl}-N-methylmethanamine], the Ki on human 5-HT2A receptor (setting [2]) was determined as 7.5 nM.
With `CNCc1cc(OCc2cc(F)ccc2F)n(CCC(C)(C)C)n1` [Example 266, 1-{5-[(2,5-difluorobenzyl)oxy]-1-(3,3-dimethylbutyl)-1H-pyrazol-3-yl}-N-methylmethanamine], the Ki on human 5-HT2A receptor (setting [2]) worked out at 0.65 nM.
On to `CNCc1cc(OCc2cc(F)c(F)cc2F)n(CC2CCCC2)n1` [Example 280, 1-{1-(cyclopentylmethyl)-5-[(2,4,5-trifluorobenzyl)oxy]-1H-pyrazol-3-yl}-N-methylmethanamine], for which, on human 5-HT2A receptor (setting [2]), the Ki stood at 1.3 nM.
`CNCc1cc(OCc2cc(F)c(F)cc2F)n(CCC(C)(C)C)n1` [Example 284, 1-{1-(3,3-dimethylbutyl)-5-[(2,4,5-trifluorobenzyl)oxy]-1H-pyrazol-3-yl}-N-methylmethanamine]: at human 5-HT2A receptor (setting [2]), the Ki worked out at 1.8 nM.
Consider `CNCc1cc(OCc2cc(F)c(F)cc2F)n(Cc2ccc(C)cc2)n1` [Example 286, N-methyl-1-{1-(4-methylbenzyl)-5-[(2,4,5-trifluorobenzyl)oxy]-1H-pyrazol-3-yl}methanamine], for which the Ki at human 5-HT2A receptor (setting [2]) worked out at 2.4 nM.
For the compound `CNCc1cc(OCc2ccccc2)n(C(C)C2CCCC2)n1` (stereo not shown) [Example 288, 1-[5-(benzyloxy)-1-(1-cyclopentylethyl)-1H-pyrazol-3-yl]-N-methylmethanamine], on human 5-HT2A receptor, the inhibition constant Ki was determined as 5.2 nM.
Consider `CNCc1cc(OCc2cc(Cl)ccc2F)n(C(C)C2CCCC2)n1` (stereo not shown) [Example 291, 1-{5-[(5-chloro-2-fluorobenzyl)oxy]-1-(1-cyclopentylethyl)-1H-pyrazol-3-yl}-N-methylmethanamine], for which the Ki was 2.5 nM on human 5-HT2A receptor (setting [2]) and 1.2 nM in assay [1].
Take `CNC(C)c1cc(OCc2cc(F)ccc2F)n(CCC2CCCC2)n1` (stereo not shown) [Example 315, 1-{1-(2-cyclopentylethyl)-5-[(2,5-difluorobenzyl)oxy]-1H-pyrazol-3-yl}-N-methylethanamine]: the Ki on human 5-HT2A receptor (setting [2]) amounted to 0.6 nM.
With `CNCc1cc(OCc2ccccc2)n(C(CF)C2CCCCC2)n1` (stereo not shown) [Example 330, 1-[5-(benzyloxy)-1-(1-cyclohexyl-2-fluoroethyl)-1H-pyrazol-3-yl]-N-methylmethanamine], the Ki at human 5-HT2A receptor came out at 2.8 nM.
Regarding `CNCc1cc(OCc2cccc(Cl)c2)n(CC2CCc3ccccc3O2)n1` (stereo not shown) [Example 341, 1-{5-[(3-chlorobenzyl)oxy]-1-(3,4-dihydro-2H-chromen-2-ylmethyl)-1H-pyrazol-3-yl}-N-methylmethanamine], the Ki at human 5-HT2A receptor came out at 4.9 nM.
Regarding `Fc1ccc(F)c(COc2cc(CNC3CC3)nn2CC2CCCCC2)c1` [Example 342, N-({1-(cyclohexylmethyl)-5-[(2,5-difluorobenzyl)oxy]-1H-pyrazol-3-yl}methyl)cyclopropanamine], the inhibition constant Ki on human 5-HT2A receptor (setting [2]) is 4.9 nM.
Consider `CNCc1cc(OC(F)(F)c2ccccc2)n(CC2CCCCC2)n1` [Example 349, 1-{1-(cyclohexylmethyl)-5-[difluoro(phenyl)methoxy]-1H-pyrazol-3-yl}-N-methylmethanamine], for which, at human 5-HT2A receptor, the inhibition constant Ki came to 6 nM.
`Cl.[2H]C([2H])(Oc1cc(CNC)nn1CC1CCCCC1)c1cc(F)ccc1F` [Example 497, 1-[1-(Cyclohexylmethyl)-5-{[(2,5-difluorophenyl) (^2H2)methyl]oxy}-1H-pyrazol-3-yl]-N-methylmethanamine Hydrochloride]: the inhibition constant Ki at human 5-HT2A receptor (setting [2]) is 2.4 nM.

(Values after patent publication US11576897B2, “Therapeutic agent for non-motor symptoms associated with Parkinson's disease” (priority 2017, dated 2023).)
